Reference: paper PMC4163382, “Symbiotic Plant Peptides Eliminate Candida albicans Both In Vitro and in an Epithelial Infection Model and Inhibit the Proliferation of Immortalized Human Cells” (BioMed Research International, 2014)

What was measured:
C. albicans WO-1 cells = test: Cell permeability assay (calcein release); type: cell-based, Candida albicans; conditions: calcein-loaded C. albicans WO-1, 10 mM potassium phosphate buffer pH 7.0, peptide 50 μg/mL, fluorescence 485/530 nm
Description: Cell permeability was monitored by the release of the intracellularly accumulated dye calcein. Overnight C. albicans WO-1 cells were washed twice with and resuspended in 10 mM potassium phosphate buffer (pH = 7.0) at a concentration of 10^7 cells mL^−1. Cells were loaded with acetomethoxy-calcein at a final concentration of 5 μM for 2 hours at room temperature. Cells were washed three times to remove the extracellular dye and then 100 μL of the suspension was transferred to FIA black 96-well plates. NCR peptides were then added at a concentration of 50 mg/L, and the release of calcein (formed by the cells' esterases) was measured by its fluorescence in a microtiter plate reader (FLUOstar OPTIMA) at excitation and emission wavelengths of 485 nm and 530 nm, respectively. Calcein efflux was calculated as previously reported.

[1] = test system: PK E6/E7 vaginal epithelial cells; test: MTT assay, cytotoxicity on human epithelial cells; type: cell-based; conditions: MTT assay, PBgluc, 12.5 to 100 μg/mL, for cationic peptides antifungal concentration range (<25 μg/mL)
Description: (§1) The immortalized human vaginal epithelial cell line PK E6/E7 [15] was cultured in serum-free CKM supplemented with 0.005 μg/mL recombinant epidermal growth factor, 50 μg/mL bovine pituitary extract, L-glutamine, and antibiotic/antimycotic solution (Life Technologies) in a CO2 thermostat at 37°C [16]. Cells at 60–70% confluence were used in subsequent experiments.
MTT Assay. PK E6/E7 vaginal epithelial cells were seeded in the wells of a 96-well plate at a density of 1 × 10^4 cells per well in a final volume of 100 μL. CKM was then aspirated and 100 μL of the appropriate peptide diluted in PBgluc was added. After 3 hours of incubation at 37°C, the peptide solution was removed, and the cells were let to regenerate in CKM for 24 hours. Then 5 mg/mL 3-[4,5-dimethylthiazol-2-yl]-2,5-diphenyltetrazolium bromide (MTT) was added to each well and the plate was placed to 37°C for 4 hours. The amount of formazan formed by the activity of the mitochondrial succinate dehydrogenase of living cells was measured by using a microtiter plate reader (FLUOstar OPTIMA) at the wavelength of 560 nm.
10 μg/mL of primycin, a macrolide lactone antibiotic complex that rapidly kills PK cells, was used as a control for cytotoxicity in both assays.
(§2) MTT assays and impedance measurements were performed in at least four technical parallels and two biological replicates; all the data are presented as mean ± standard deviation. Significance was calculated with Newman-Keuls post hoc test using the GraphPad Prism version 5 for Windows and a probability (P) value of less than 0.05 was considered significant.

[2] = test system: PK E6/E7 vaginal epithelial cells; test: Real-Time Cell Analysis (RTCA), proliferation of human epithelial cells; type: cell-based; conditions: 3 hours treatment in PBgluc, cell index 40 hours after treatment
Description: as §1
Real-Time Cell Analysis (RTCA). 7 × 10^4 PK E6/E7 cells per well were seeded in 96-well E-plates (ACEA Biosciences) in which the bottoms of the wells were covered with microelectrodes and the epithelial cells were allowed to attach to the bottom of the wells for 20 hours. CKM was then aspirated and the cells were treated with 100 μL of the peptides diluted in PBgluc. […] The cell index at the beginning of the measurement after treatment was considered as 100% and values measured at 40 hours were expressed (see Supplementary Figure 1in Supplementary Materials available online at http://dx.doi.org/10.1155/2014/320796). […]
as §2

[3] = test system: PK E6/E7 vaginal epithelial cells infected with C. albicans WO-1; test: Vaginal epithelial cell - C. albicans coculture (RTCA); type: cell-based, human; conditions: PK E6/E7 + C. albicans WO-1, MOI of 5, 3 hours coculture then peptide 3 hours in PBgluc at both 25 and 50 μg/mL, RTCA at 40 hours
Description: PK E6/E7 cells were seeded in 96-well E-plates as described above for RTCA. On the next day, an overnight culture of C. albicans WO-1 was diluted to OD = 1 and let to grow until OD = 1.5–2. The fungal cell suspension was diluted in antibiotic/antimycotic-free CKM and was added to the human cells with a multiplicity of infection (MOI) of 5. After 3 hours of coculture at 37°C, CKM medium was replaced with NCR peptides in PBgluc. After 3 hours of incubation, peptides were removed and 200 μL of fresh antibiotic/antimycotic-free CKM was added. Subsequent measurements were performed as described above.
as §2

AFERTETRMLTIPCTSDANCPKVISPCHTKCFDGFCGWYIEGSYEGP [NCR001, anionic chemically synthesized mature NCR peptide of Medicago truncatula]
Calcein (dye) efflux (C. albicans WO-1 cells): no calcein release
Effect on viability of the human cells [1]: no negative effect
Effect on proliferation of the human cells [2]: no negative effect
Prevention of C. albicans induced epithelial cell death [3]: unable to prevent vaginal epithelial cell death
